Assay results published in ChEMBL document CHEMBL1909046, “DrugMatrix in vitro pharmacology data”.

Tests used:
Vasopressin V1a receptor = Vasopressin V1a receptor (Homo sapiens, UniProt P37288); assay type: cell membranes, Membrane; details: hek293; also: in other assays of this panel Not Active means under 50% inhibition at 10 µM
[1] = DRUGMATRIX: GABAA, Flunitrazepam, Central radioligand binding (ligand: [3H] Flunitrazepam); assay type: cell membranes, Rattus norvegicus, Wistar, Brain, Membrane; details: Not Active = under 50% inhibition at 10 µM
[2] = molecular target: T1, Muscarinic acetylcholine receptor M4 (Homo sapiens, UniProt P08173); assay type: cell membranes, CHO-K1, Membrane; also: in other assays of this panel Not Active means under 50% inhibition at 10 µM
T1 sequence (P08173 whole entry): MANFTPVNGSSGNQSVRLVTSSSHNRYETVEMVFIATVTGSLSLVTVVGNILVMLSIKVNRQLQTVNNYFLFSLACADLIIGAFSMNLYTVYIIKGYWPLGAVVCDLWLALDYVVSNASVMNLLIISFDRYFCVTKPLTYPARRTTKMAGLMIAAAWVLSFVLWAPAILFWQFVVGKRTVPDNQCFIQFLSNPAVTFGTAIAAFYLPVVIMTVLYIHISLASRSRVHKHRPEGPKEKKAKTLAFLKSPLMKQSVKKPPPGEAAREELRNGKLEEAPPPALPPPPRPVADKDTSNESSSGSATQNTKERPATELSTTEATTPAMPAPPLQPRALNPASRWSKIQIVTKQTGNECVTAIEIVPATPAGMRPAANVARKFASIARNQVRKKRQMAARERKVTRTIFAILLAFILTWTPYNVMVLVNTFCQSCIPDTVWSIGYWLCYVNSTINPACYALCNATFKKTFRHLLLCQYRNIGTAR

Calcitonin receptor = molecular target: T2, Calcitonin receptor (Homo sapiens, UniProt P30988); assay type: cell membranes, Membrane; details: t47d; also: in other assays of this panel Not Active means under 50% inhibition at 10 µM
T2 sequence (P30988 whole entry): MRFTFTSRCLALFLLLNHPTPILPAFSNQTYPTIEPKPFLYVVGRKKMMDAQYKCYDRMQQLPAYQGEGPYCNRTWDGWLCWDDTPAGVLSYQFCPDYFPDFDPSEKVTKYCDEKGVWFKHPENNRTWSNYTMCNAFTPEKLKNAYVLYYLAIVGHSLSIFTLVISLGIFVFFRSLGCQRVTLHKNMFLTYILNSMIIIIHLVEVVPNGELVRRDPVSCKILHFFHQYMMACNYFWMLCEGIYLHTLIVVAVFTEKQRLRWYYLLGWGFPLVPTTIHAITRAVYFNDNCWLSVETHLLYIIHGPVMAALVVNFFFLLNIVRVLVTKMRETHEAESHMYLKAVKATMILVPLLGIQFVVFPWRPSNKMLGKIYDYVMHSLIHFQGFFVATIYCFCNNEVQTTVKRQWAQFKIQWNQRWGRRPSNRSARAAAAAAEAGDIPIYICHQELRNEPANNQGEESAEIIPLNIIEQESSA

[3] = molecular target: T3, Nitric oxide synthase, inducible (Mus musculus, UniProt P29477); parameters: species or system Escherichia coli;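 also: inhibition of iNOS enzyme activity measured with L-arginine as substrate; in other assays of this panel Not Active means under 50% inhibition at 10 µM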
T3 sequence (P29477 whole entry): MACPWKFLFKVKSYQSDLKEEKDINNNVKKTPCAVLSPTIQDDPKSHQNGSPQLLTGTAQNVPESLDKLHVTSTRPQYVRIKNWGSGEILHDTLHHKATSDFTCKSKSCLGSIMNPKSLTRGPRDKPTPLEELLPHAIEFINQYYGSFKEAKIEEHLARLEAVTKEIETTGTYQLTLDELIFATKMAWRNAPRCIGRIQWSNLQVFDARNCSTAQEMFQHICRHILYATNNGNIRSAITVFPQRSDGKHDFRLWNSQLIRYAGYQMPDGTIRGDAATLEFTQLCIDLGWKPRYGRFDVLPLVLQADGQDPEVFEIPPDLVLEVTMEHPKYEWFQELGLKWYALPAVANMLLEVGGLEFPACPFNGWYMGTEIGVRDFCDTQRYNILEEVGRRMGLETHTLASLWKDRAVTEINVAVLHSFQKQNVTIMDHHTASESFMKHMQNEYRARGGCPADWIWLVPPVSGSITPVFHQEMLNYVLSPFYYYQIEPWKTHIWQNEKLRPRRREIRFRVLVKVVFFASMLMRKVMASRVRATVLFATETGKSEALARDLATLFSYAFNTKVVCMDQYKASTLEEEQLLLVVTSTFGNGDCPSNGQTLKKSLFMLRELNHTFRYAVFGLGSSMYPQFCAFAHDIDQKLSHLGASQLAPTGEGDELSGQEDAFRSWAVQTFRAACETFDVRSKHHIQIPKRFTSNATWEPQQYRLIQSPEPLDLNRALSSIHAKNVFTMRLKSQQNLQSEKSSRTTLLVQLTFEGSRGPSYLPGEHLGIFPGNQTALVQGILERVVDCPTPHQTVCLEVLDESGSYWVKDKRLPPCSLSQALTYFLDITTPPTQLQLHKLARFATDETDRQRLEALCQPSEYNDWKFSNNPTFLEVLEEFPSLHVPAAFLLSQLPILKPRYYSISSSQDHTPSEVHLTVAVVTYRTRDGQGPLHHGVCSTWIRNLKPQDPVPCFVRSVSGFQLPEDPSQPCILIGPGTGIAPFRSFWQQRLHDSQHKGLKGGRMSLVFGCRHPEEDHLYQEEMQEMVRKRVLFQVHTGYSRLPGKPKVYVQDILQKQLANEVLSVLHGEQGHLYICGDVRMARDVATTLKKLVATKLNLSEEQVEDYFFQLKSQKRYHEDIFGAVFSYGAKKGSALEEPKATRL

[4] = DRUGMATRIX: Sigma2 radioligand binding (ligand: [3H] Ifenprodil); assay type: cell membranes, Rattus norvegicus, Wistar, Brain, Membrane; details: Not Active = under 50% inhibition at 10 µM
[5] = molecular target: T4, Type-2 angiotensin II receptor (Homo sapiens, UniProt P50052); assay type: cell-based; details: cho-k1; also: in other assays of this panel Not Active means under 50% inhibition at 10 µM
T4 sequence (P50052 whole entry): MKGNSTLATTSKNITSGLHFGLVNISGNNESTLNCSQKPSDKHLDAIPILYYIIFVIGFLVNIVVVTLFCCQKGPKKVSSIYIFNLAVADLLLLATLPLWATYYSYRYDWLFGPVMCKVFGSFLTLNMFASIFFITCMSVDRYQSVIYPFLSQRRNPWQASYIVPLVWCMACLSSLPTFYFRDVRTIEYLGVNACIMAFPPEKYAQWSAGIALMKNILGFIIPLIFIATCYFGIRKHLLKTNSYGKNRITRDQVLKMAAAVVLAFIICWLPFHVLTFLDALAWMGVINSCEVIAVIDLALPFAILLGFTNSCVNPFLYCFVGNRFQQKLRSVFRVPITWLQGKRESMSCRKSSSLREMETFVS

Sequence of Vasopressin V1a receptor (P37288 whole entry): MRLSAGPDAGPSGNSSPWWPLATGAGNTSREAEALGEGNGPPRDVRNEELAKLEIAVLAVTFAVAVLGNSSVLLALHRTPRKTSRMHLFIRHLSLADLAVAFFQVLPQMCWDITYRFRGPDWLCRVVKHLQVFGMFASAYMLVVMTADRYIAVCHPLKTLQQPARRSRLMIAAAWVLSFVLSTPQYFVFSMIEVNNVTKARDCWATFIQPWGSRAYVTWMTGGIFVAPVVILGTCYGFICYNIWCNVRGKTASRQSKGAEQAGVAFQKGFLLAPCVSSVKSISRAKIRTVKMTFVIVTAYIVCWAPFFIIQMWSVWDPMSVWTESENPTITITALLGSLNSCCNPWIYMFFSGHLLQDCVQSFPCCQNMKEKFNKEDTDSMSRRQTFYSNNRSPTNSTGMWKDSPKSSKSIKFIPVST

Molecule	IC50 (Vasopressin V1a receptor)	IC50 [1]	Ki [1]	IC50 ([2]; cho-k1)	IC50 (Calcitonin receptor)	IC50 [3]	IC50 [4]	Ki [4]	IC50 [5]	Ki (Vasopressin V1a receptor)	Ki ([2]; cho-k1)	Ki (Calcitonin receptor)	Ki [3]	Ki [5]	IC50 ([2]; read-out: IC50)	Ki ([2]; read-out: Ki)	IC50 ([4]; read-out: IC50)	Ki ([4]; read-out: Ki)
CCC1(C)CC(=O)NC1=O (stereo unspecified) [ETHOSUXIMIDE]	Not Active	Not Active	Not Active	Not Active	Not Active	Not Active	Not Active	Not Active	Not Active									
GRAMICIDIN	Not Active	Not Active	Not Active	Not Active	Not Active	Not Active	Not Active	Not Active	Not Active	Not Active	Not Active	Not Active	Not Active	Not Active				
OC(CCCN1CCCCC1)(c1ccccc1)c1ccccc1 [DIPHENIDOL]	Not Active	Not Active	Not Active		Not Active	Not Active	Not Active	Not Active	Not Active						271 nM	38 nM		
CCC(=O)O[C@]1(C(=O)CCl)[C@@H](C)C[C@H]2[C@@H]3CCC4=CC(=O)C=C[C@]4(C)[C@@]3(F)[C@@H](O)C[C@@]21C [CLOBETASOL PROPIONATE]	Not Active	Not Active	Not Active	Not Active	Not Active	Not Active	Not Active	Not Active	Not Active									
Cc1c(OCC(F)(F)F)ccnc1C[S+]([O-])c1nc2ccccc2[nH]1 (stereo unspecified) [LANSOPRAZOLE]	Not Active	Not Active	Not Active	Not Active	Not Active	Not Active	Not Active	Not Active	Not Active									
CCCOc1ccc(C(=O)OCCN(CC)CC)cc1N [PROPARACAINE]	Not Active	Not Active	Not Active	Not Active	Not Active	Not Active	Not Active	Not Active	Not Active									
CC(=O)[C@H]1[C@H](C#N)C[C@H]2[C@@H]3CC=C4C[C@@H](O)CC[C@]4(C)[C@H]3CC[C@@]21C [PREGNENOLONE CARBONITRILE]	Not Active	Not Active	Not Active	Not Active	Not Active	Not Active	Not Active	Not Active	Not Active									
CN(C)CC[C@@H](c1ccc(Cl)cc1)c1ccccn1 [DEXCHLORPHENIRAMINE]	Not Active	Not Active	Not Active		Not Active	Not Active			Not Active						1980 nM	276 nM	19.1 µM	11.7 µM
CC[C@H](C)[C@H]1O[C@]2(C=C[C@@H]1C)C[C@@H]1C[C@@H](C/C=C(\C)[C@@H](O[C@H]3C[C@H](OC)[C@@H](O[C@H]4C[C@H](OC)[C@@H](O)[C@H](C)O4)[C@H](C)O3)[C@@H](C)/C=C/C=C3\CO[C@@H]4[C@H](O)C(C)=C[C@@H](C(=O)O1)[C@]34O)O2.CO[C@H]1C[C@H](O[C@H]2[C@H](C)O[C@@H](O[C@@H]3/C(C)=C/C[C@@H]4C[C@@H](C[C@]5(C=C[C@H](C)[C@@H](C(C)C)O5)O4)OC(=O)[C@@H]4C=C(C)[C@@H](O)[C@H]5OC/C(=C\C=C\[C@@H]3C)[C@]54O)C[C@@H]2OC)O[C@@H](C)[C@@H]1O [ABAMECTIN]	Not Active	Not Active	Not Active	Not Active	Not Active	Not Active	Not Active	Not Active	Not Active									
C[C@@H]1O[C@@H](O[C@@H]2C=C3CC[C@@H]4[C@H](CC[C@]5(C)[C@@H](c6ccc(=O)oc6)CC[C@]45O)[C@@]3(C)CC2)[C@H](O)[C@H](O)[C@H]1O [PROSCILLARIDIN]	Not Active	Not Active	Not Active	Not Active	Not Active	Not Active	Not Active	Not Active	Not Active									
CN(C)[C@@H]1C(O)=C(C(N)=O)C(=O)[C@@]2(O)C(O)=C3C(=O)c4c(O)ccc(Cl)c4[C@@](C)(O)[C@H]3C[C@@H]12 [CHLORTETRACYCLINE]	Not Active	Not Active	Not Active	Not Active	Not Active	Not Active	Not Active	Not Active	Not Active									
Nc1ccn([C@@H]2O[C@H](CO)[C@@H](O)[C@@H]2O)c(=O)n1 [CYTARABINE]	Not Active	Not Active	Not Active	Not Active	Not Active	Not Active	Not Active	Not Active	Not Active									
CC(C)c1cccc(C(C)C)c1O [PROPOFOL]	Not Active	Not Active	Not Active	Not Active	Not Active	Not Active	Not Active	Not Active	Not Active									
NYSTATIN	Not Active	Not Active	Not Active	Not Active	Not Active	Not Active	Not Active	Not Active	Not Active	Not Active	Not Active	Not Active	Not Active	Not Active				
Cc1cc2c(OCC(CNC(C)(C)C)OC(=O)c3ccccc3)cccc2[nH]1 (stereo unspecified) [BOPINDOLOL]	Not Active	Not Active	Not Active	Not Active	Not Active	Not Active	Not Active	Not Active	Not Active									
CC(=O)Oc1ccc(C(c2ccc(OC(C)=O)cc2)c2ccccn2)cc1 [BISACODYL]	Not Active	Not Active	Not Active	Not Active	Not Active	Not Active	Not Active	Not Active	Not Active									
